According to patent US11311522B1 (Cavion, Inc., priority 2018, dated 2022):

Tested on: patients with essential tremor
Test: T-CALM: TETRAS performance subscale (TETRAS-PS)
Conditions: for >5 to 10 point worsening / >10 point worsening: TETRAS-PS
[1] = Independent Video Raters, subgroup Baseline TETRAS-PS Severity <=Median, N=22
[2] = Independent Video Raters, subgroup Baseline TETRAS-PS Severity > Median, N=16
[3] = Independent Video Raters, subgroup No Beta-blocker Use at Day 1, N=20
[4] = Independent Video Raters, subgroup No Concurrent Tremor Medication at Day 1, N=14
[5] = Independent Video Raters, subgroup Using Beta-blocker at Day 1, N=18
[6] = Independent Video Raters, subgroup Using Concurrent Tremor Medication at Day 1, N=24
[7] = Investigator Rated, subgroup Baseline TETRAS-PS Severity <=Median, N=22
[8] = Investigator Rated, subgroup Baseline TETRAS-PS Severity > Median, N=15
[9] = Investigator Rated, subgroup No Beta-blocker Use at Day 1, N=19
[10] = Investigator Rated, subgroup No Concurrent Tremor Medication at Day 1, N=14
[11] = Investigator Rated, subgroup Using Beta-blocker at Day 1, N=18
[12] = Investigator Rated, subgroup Using Concurrent Tremor Medication at Day 1, N=23

Structure (SMILES): CC(C)c1ccc(CC(=O)N[C@H](C)c2ccc(OCC(F)(F)F)cn2)cc1 [CX-8998]
- TETRAS-PS total score, Median (Day 28, independent video raters): 20.0
- TETRAS-PS LS mean difference from placebo (95% CI) (Day 28, investigator rated): −2.0 (−4.0, 0.0)
- TETRAS-PS total score, Median (Day 28, investigator rated): 22.5
- TETRAS-PS Total Score change from baseline to Day 28, LS mean difference from placebo (95% CI) (Independent Video Raters, subgroup Baseline TETRAS-PS Severity <=Median): 1.2 (−1.1, 3.4)
- TETRAS-PS Total Score change from baseline to Day 28, LS mean (SE) [1]: −0.6 (0.82)
- TETRAS-PS Total Score change from baseline to Day 28, Median (minimum, maximum) [1]: 0 (−9.5, 7.0)
- TETRAS-PS Total Score change from baseline to Day 28, Mean (SD) (Independent Video Raters, subgroup Baseline TETRAS-PS Severity <=Median, N=22, titrated up to 10 mg BID): −0.1 (3.98)
- TETRAS-PS Total Score change from baseline to Day 28, LS mean difference from placebo (95% CI) (Independent Video Raters, subgroup Baseline TETRAS-PS Severity > Median): −1.3 (−4.8, 2.3)
- TETRAS-PS Total Score change from baseline to Day 28, LS mean (SE) [2]: −3.5 (1.47)
- TETRAS-PS Total Score change from baseline to Day 28, Mean (SD) [2]: −3.6 (4.14)
- TETRAS-PS Total Score change from baseline to Day 28, Median (minimum, maximum) [2]: −3.0 (−11, 2.5)
- TETRAS-PS Total Score change from baseline to Day 28, LS mean difference from placebo (95% CI) (Independent Video Raters, subgroup No Beta-blocker Use at Day 1): −1.2 (−4.3, 1.8)
- TETRAS-PS Total Score change from baseline to Day 28, LS mean (SE) [3]: −1.3 (1.10)
- TETRAS-PS Total Score change from baseline to Day 28, Mean (SD) [3]: −1.6 (4.99)
- TETRAS-PS Total Score change from baseline to Day 28, Median (minimum, maximum) [3]: −2.0 (−11, 7.0)
- TETRAS-PS Total Score change from baseline to Day 28, LS mean difference from placebo (95% CI) (Independent Video Raters, subgroup No Concurrent Tremor Medication at Day 1): −2.0 (−5.8, 1.8)
- TETRAS-PS Total Score change from baseline to Day 28, LS mean (SE) [4]: −4.3 (2.05)
- TETRAS-PS Total Score change from baseline to Day 28, Median (minimum, maximum) [4]: −3.3 (−11, 7.0)
- TETRAS-PS Total Score change from baseline to Day 28, LS mean difference from placebo (95% CI) (Independent Video Raters, subgroup Using Beta-blocker at Day 1): 1.4 (−1.4, 4.3)
- TETRAS-PS Total Score change from baseline to Day 28, LS mean (SE) [5]: −2.5 (1.36)
- TETRAS-PS Total Score change from baseline to Day 28, Mean (SD) [5]: −1.5 (3.68)
- TETRAS-PS Total Score change from baseline to Day 28, Median (minimum, maximum) [5]: −1.3 (−9.5, 4.0)
- TETRAS-PS Total Score change from baseline to Day 28, LS mean difference from placebo (95% CI) (Independent Video Raters, subgroup Using Concurrent Tremor Medication at Day 1): 1.8 (−0.7, 4.3)
- TETRAS-PS Total Score change from baseline to Day 28, LS mean (SE) [6]: −1.6 (1.14)
- TETRAS-PS Total Score change from baseline to Day 28, Mean (SD) [6]: −1.1 (3.71)
- TETRAS-PS Total Score change from baseline to Day 28, Median (minimum, maximum) [6]: −1.3 (−9.5, 5.5)
- TETRAS-PS Total Score change from baseline to Day 28, LS mean difference from placebo (95% CI) (Investigator Rated, subgroup Baseline TETRAS-PS Severity <=Median): −1.2 (−3.1, 0.6)
- TETRAS-PS Total Score change from baseline to Day 28, LS mean (SE) [7]: −3.8 (0.67)
- TETRAS-PS Total Score change from baseline to Day 28, Mean (SD) [7]: −3.4 (3.74)
- TETRAS-PS Total Score change from baseline to Day 28, Median (minimum, maximum) [7]: −3.0 (−13.5, 1.0)
- TETRAS-PS Total Score change from baseline to Day 28, LS mean difference from placebo (95% CI) (Investigator Rated, subgroup Baseline TETRAS-PS Severity > Median): −3.5 (−7.4, 0.4)
- TETRAS-PS Total Score change from baseline to Day 28, LS mean (SE) [8]: −5.6 (1.60)
- TETRAS-PS Total Score change from baseline to Day 28, Mean (SD) [8]: −5.8 (4.48)
- TETRAS-PS Total Score change from baseline to Day 28, Median (minimum, maximum) [8]: −6.0 (−13, 4.5)
- TETRAS-PS Total Score change from baseline to Day 28, LS mean difference from placebo (95% CI) (Investigator Rated, subgroup No Beta-blocker Use at Day 1): −4.3 (−7.0, −1.7)
- TETRAS-PS Total Score change from baseline to Day 28, LS mean (SE) [9]: −5.6 (0.97)
- TETRAS-PS Total Score change from baseline to Day 28, Mean (SD) [9]: −4.5 (3.89)
- TETRAS-PS Total Score change from baseline to Day 28, Median (minimum, maximum) [9]: −4.0 (−12.4, 1.0)
- TETRAS-PS Total Score change from baseline to Day 28, LS mean difference from placebo (95% CI) (Investigator Rated, subgroup No Concurrent Tremor Medication at Day 1): −4.4 (−7.4, −1.3)
- TETRAS-PS Total Score change from baseline to Day 28, LS mean (SE) [10]: −6.2 (1.60)
- TETRAS-PS Total Score change from baseline to Day 28, Mean (SD) [10]: −5.0 (3.97)
- TETRAS-PS Total Score change from baseline to Day 28, Median (minimum, maximum) [10]: −4.5 (−12.5, 1.0)
- TETRAS-PS Total Score change from baseline to Day 28, LS mean difference from placebo (95% CI) (Investigator Rated, subgroup Using Beta-blocker at Day 1): −0.3 (−3.6, 3.0)
- TETRAS-PS Total Score change from baseline to Day 28, LS mean (SE) [11]: −3.6 (1.56)
- TETRAS-PS Total Score change from baseline to Day 28, Mean (SD) [11]: −4.2 (4.55)
- TETRAS-PS Total Score change from baseline to Day 28, Median (minimum, maximum) [11]: −4.0 (−13.5, 4.5)
- TETRAS-PS Total Score change from baseline to Day 28, LS mean difference from placebo (95% CI) (Investigator Rated, subgroup Using Concurrent Tremor Medication at Day 1): −0.5 (−3.2, 2.3)
- TETRAS-PS Total Score change from baseline to Day 28, LS mean (SE) [12]: −3.5 (1.29)
- TETRAS-PS Total Score change from baseline to Day 28, Mean (SD) [12]: −3.9 (4.31)
- TETRAS-PS Total Score change from baseline to Day 28, Median (minimum, maximum) [12]: −3.5 (−13.5, 4.5)
- >5 to 10 point worsening (Day 15): 0 n (%)
- >10 point worsening (Day 15): 0 n (%)
- >5 to 10 point worsening (Day 28): 0 n (%)
- >10 point worsening (Day 28): 0 n (%)
- TETRAS-PS change from baseline to Day 28, Mean (SD) (independent video raters): −1.6 (4.36)
- TETRAS-PS change from baseline to Day 28, Median (independent video raters): −1.5
- TETRAS-PS change from baseline to Day 28, Mean (SD) (investigator rated): −4.4 (4.16)
- TETRAS-PS change from baseline to Day 28, Median (investigator rated): −4.0
